Experimental findings from ChEMBL document CHEMBL1201862, “PubChem BioAssay data set” (2004) are described below.

Among the test systems are UACC-257; OVCAR-5; OVCAR-8; NCI-H23; SF-539; SK-MEL-5; SF-268; HT-29; ACHN; PC-3; Malme-3M; SK-MEL-28; HOP-62; NCI-H522; HOP-92; UO-31; UACC-62; T47D; M14; SK-OV-3.
Holding throughout (experiment): growth of human tumour cells (NCI), 48 h

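Protocol summary: plate cells (96-well), add compound at 5 concentrations, incubate 48 h, interpolate endpoints linearly. GI50 = concentration required for 50% inhibition of growth.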 Active and inactive are the calls of the source. Rule as the data show it: active = GI50 up to about 1.1 µM and inactive = higher.

For `Nc1nc(Cl)cc(OCC2(CO)CC=CC2)n1`, the GI50 with UACC-257, in the test with OVCAR-5, with OVCAR-8, with NCI-H23, in the test with SF-539 and in the test on SK-MEL-5 was > 100 µM (inactive) in each case. Moreover, the GI50 in the test with SF-268, with HT-29, in the test with ACHN, with PC-3, in the test on Malme-3M and in the test on SK-MEL-28 was > 100 µM (inactive) throughout. The GI50 with HOP-62, with NCI-H522 and in the test with HOP-92 was > 100 µM (inactive) in each case.
Regarding `C/C=C1\C(=O)O[C@H]2C/C(C)=C/CC/C(C)=C/CC[C@@]3(C)O[C@@H]3C[C@@H]12`, the GI50 in the test with UACC-257, in the test with OVCAR-5, in the test with OVCAR-8, with UO-31, with SF-539 and in the test with SK-MEL-5 was > 100 µM (inactive) in each case. The GI50 in the test with UACC-62, in the test on SF-268, with HT-29, in the test with ACHN, in the test with PC-3 and in the test with T47D was > 100 µM (inactive) in each case. In addition, the GI50 in the test on M14, in the test on Malme-3M, with SK-MEL-28, in the test with HOP-62 and in the test on SK-OV-3 was > 100 µM (inactive) each time.
Turning to `CC(=O)N[C@@H](Cc1ccc(O)cn1)C(=O)NCc1cccc(Cl)c1`, the GI50 in the test with UACC-257, in the test on OVCAR-5, in the test with UO-31, in the test on NCI-H23, in the test with SF-539 and in the test with SK-MEL-5 was > 100 µM (inactive) in each case. The GI50 in the test with UACC-62, with SF-268, in the test on HT-29, with ACHN, in the test on PC-3 and in the test on T47D was > 100 µM (inactive) in each case. Besides, the GI50 in the test on M14, in the test on SK-MEL-28, in the test on HOP-62, in the test on NCI-H522 and with SK-OV-3 was > 100 µM (inactive) in each case.
Regarding `COc1cc(OC)cc(-c2nc3cc(F)ccc3s2)c1`, the GI50 in the test with UACC-257 is > 100 µM (inactive); in the test with OVCAR-5, 24.9 µM (inactive); with OVCAR-8 it was 30.8 µM (inactive); in the test with UO-31, 31 µM (inactive); with NCI-H23, 12.9 µM (inactive); with SF-539, 15.8 µM (inactive). Also, the GI50 in the test with SK-MEL-5 was > 100 µM (inactive); in the test on UACC-62, 16.4 µM (inactive); with SF-268 it was 13.8 µM (inactive); in the test on HT-29, > 100 µM (inactive); in the test with ACHN, 14.5 µM (inactive); with PC-3, 39.5 µM (inactive). Besides, the GI50 with T47D was 10.5 µM (inactive); with M14, 37.3 µM (inactive); in the test on Malme-3M, 55 µM (inactive); with NCI-H522, 19 µM (inactive); in the test on SK-OV-3, 13.5 µM (inactive).
In the case of `COc1cc(C2c3cc4c(cc3[C@@H](Nc3ccc(F)cc3)C3CO[C@@H](O)[C@H]23)OCO4)cc(OC)c1O` (stereo partly specified), the GI50 in the test with UACC-257 was 20.7 µM (inactive); with OVCAR-5 it was 1.46 µM (inactive); with OVCAR-8, 6.01 µM (inactive); with UO-31, 1.24 µM (inactive); in the test with SF-539 it was 1.03 µM (active); in the test with SK-MEL-5, 6.18 µM (inactive). Moreover, the GI50 in the test with SF-268 is 6.71 µM (inactive); with ACHN, 1.05 µM (active); in the test on PC-3, 3.61 µM (inactive); in the test with T47D, 3.72 µM (inactive); with M14, 5.26 µM (inactive); with SK-MEL-28, 7.85 µM (inactive). In addition, the GI50 in the test on HOP-62 was 5.07 µM (inactive); in the test on NCI-H522, 3.16 µM (inactive); with SK-OV-3, 8.65 µM (inactive).
